Measured values as given in patent EP1073451B1, “D[…] TREATING ISCHEMIA” (University of Kentucky Research Foundation, priority 1998, dated 2002).

Tested on: focal middle cerebral arterial occlusion (MCAO) ischemia
Details: for infarct volume reduced compared to control animals: after 24 h of reperfusion; for infarct volume reduced compared to control animals / MABP, pO2, pCO2, pH or rectal temperature versus control animals: 4 mg/kg i.p. x4 prior to 1 h MCAO; for neurological deficits: behavior ranking 0 (normal) to 3 (severe), 4 mg/kg i.p. at 6.5 h, 4.5 h, 2.5 h and 0.5 h prior to ischemic injury, 1 h MCAO, mean ± SEM; for neurological deficits / infarct volume: n=8; for infarct volume: 4 mg/kg; for MABP, pO2, pCO2, pH or rectal temperature versus control animals: post ischemia

Row | Compound | infarct volume reduced compared to control animals [%] | neurological deficits | infarct volume [mm^2] | MABP, pO2, pCO2, pH or rectal temperature versus control animals
1 | CC(C)C[C@@H](NC(=O)[C@H](Cc1ccccc1)NC(=O)CNC(=O)[C@@H](C)NC(=O)[C@@H](N)Cc1ccc(O)cc1)C(=O)O [DADLE, Tyr-D-Ala-Gly-Phe-D-Leu-enkephalin] | 12 | 1.73 ± 0.20 | 67 ± 9 | no significant differences
2 | Tyr-Ala-Phe-Asp-Val-Val-Gly-NH2 [deltorphin] | 42 | 0.44 ± 0.11 | 45 ± 10 | no significant differences
